Experimental data as given in patent US7314877B2, “Benzofuran derivative” (Kowa Co., Ltd., priority 2003, dated 2008).

Key:
TNF-α production = TNF-α production inhibitory effect in LPS-stimulated RAW264.7 cells (ELISA); type: cell-based; settings: Mus musculus, 8 h, lipopolysaccharide 1 μg/mL, eight hours incubation, TNF-α in culture supernatant by ELISA
Method: Method for Determining TNF-α Production Inhibitory Effect
RAW264.7 cells were suspended in a DMEM medium supplemented with 10% fetal bovine serum (FBS), and the suspension was seeded in wells of a 24-well plate (5×10^5/mL/well). Each test compound (0 to 10 μM) was added to the wells, and the mixture was incubated in a CO2 incubator for 30 minutes. Subsequently, lipopolysaccharide was added to the mixture in an amount of 1 μg/mL, and incubation was further performed in a CO2 incubator for eight hours. Eight hours after the start of incubation, the culture supernatant was collected, and the amount of TNF-α contained in the culture broth was determined through ELISA. IC50 value was determined through comparison with the amount of produced TNF-α in the drug-free (blank) case.

[1] = Test on absorption after oral administration in mouse; type: in vivo; settings: male ICR mouse, 10 mg/kg oral, suspension in 0.5% HPMC, plasma at 0.25, 0.5, 1 and 4 hours, HPLC; FIG. 1
Method: Test on Absorption after Oral Administration in Mouse Each of the test compounds (Examples 7, 10, and 13) was suspended in 0.5% HPMC in a mortar. The suspension was orally administered to each male ICR mouse (6 weeks old) in an amount of 10 mg/kg. At each time of 0.25, 0.5, 1, and 4 hours after oral administration, a blood sample was collected and centrifuged, whereby a plasma sample was prepared. The level of the test compound in the plasma sample was determined through HPLC.

| melting point | IC50 (TNF-α production) [µM] | absorption after oral administration (level of test compound in plasma) [1] | SMILES |
| --- | --- | --- | --- |
| 179 to 180 °C | 3.1 |  | CN1CCN(Cc2cc(-c3ccc4c(c3)CCO4)nn(Cc3ccc(F)cc3)c2=O)CC1 [Example 6, 2-(4-fluorobenzyl)-6-(2,3-dihydro-1-benzofuran-5-yl)-4-(4-methyl-1-piperazinyl)methyl-2H-pyridazin-3-one] |
| 201 to 204 °C (dec.) |  | good absorbability | CN1CCN(Cc2cc(-c3ccc4c(c3)CCO4)nn(Cc3ccc(F)cc3)c2=O)CC1.Cl.Cl [Example 7, 2-(4-fluorobenzyl)-6-(2,3-dihydro-1-benzofuran-5-yl)-4-(4-methyl-1-piperazinyl)methyl-2H-pyridazin-3-one dihydrochloride] |
| 149 to 150 °C |  |  | CN1CCN(Cc2cc(-c3ccc4c(c3)CCO4)nn(Cc3ccc(Cl)cc3)c2=O)CC1 [Example 8, 2-(4-chlorobenzyl)-6-(2,3-dihydro-1-benzofuran-5-yl)-4-(4-methyl-1-piperazinyl)methyl-2H-pyridazin-3-one] |
| 112 to 113 °C | 4.2 |  | CN1CCN(Cc2cc(-c3ccc4c(c3)CCO4)nn(CC=Cc3ccc(Cl)cc3)c2=O)CC1 [Example 9, 2-(4-chlorocinnamyl)-6-(2,3-dihydro-1-benzofuran-5-yl)-4-(4-methyl-1-piperazinyl)methyl-2H-pyridazin-3-one] |
|  |  | good absorbability | CN1CCN(Cc2cc(-c3ccc4c(c3)CCO4)nn(CC=Cc3ccc(Cl)cc3)c2=O)CC1.Cl.Cl [Example 10, 2-(4-chlorocinnamyl)-6-(2,3-dihydro-1-benzofuran-5-yl)-4-(4-methyl-1-piperazinyl)methyl-2H-pyridazin-3-one dihydrochloride] |
|  |  | good absorbability | CN1CCN(Cc2cc(-c3ccc4c(c3)CCO4)nn(CCCc3ccccc3Cl)c2=O)CC1.Cl.Cl [Example 13, 2-[3-(2-chlorophenyl)propyl]-6-(2,3-dihydro-1-benzofuran-5-yl)-4-(4-methyl-1-piperazinyl)methyl-2H-pyridazin-3-one dihydrochloride] |
| 141.4 to 142.1 °C | 7.5 |  | CN1CCN(Cc2cc(-c3ccc4c(c3)CCO4)nn(Cc3ccccc3Cl)c2=O)CC1 [Example 17, 2-(2-chlorobenzyl)-6-(2,3-dihydro-1-benzofuran-5-yl)-4-(4-methyl-1-piperazinyl)methyl-2H-pyridazin-3-one] |

More lines, now with the values behind:

| SMILES | melting point | IC50 (TNF-α production) [µM] | absorption after oral administration (level of test compound in plasma) [1] |
| --- | --- | --- | --- |
| CN1CCN(Cc2cc(-c3ccc4c(c3)CCO4)nn(CC3CC3)c2=O)CC1 [Example 1, 2-cyclopropylmethyl-6-(2,3-dihydro-1-benzofuran-5-yl)-4-(4-methyl-1-piperazinyl)methyl-2H-pyridazin-3-one] | 128 to 130 °C | 8.9 |  |
| CN(C)Cc1cc(-c2ccc3c(c2)CCO3)nn(CC2CC2)c1=O [Example 3, 2-cyclopropylmethyl-6-(2,3-dihydro-1-benzofuran-5-yl)-4-dimethylaminomethyl-2H-pyridazin-3-one] | 109 to 110 °C |  |  |
| CN1CCN(Cc2cc(-c3ccc4occc4c3)nn(Cc3ccc(F)cc3)c2=O)CC1 [Example 11, 6-(1-benzofuran-5-yl)-2-(4-fluorobenzyl)-4-(4-methyl-1-piperazinyl)methyl-2H-pyridazin-3-one] | 128 to 130 °C |  |  |
| CN1CCN(Cc2cc(-c3ccc4c(c3)CCO4)nn(CCCc3ccccc3Cl)c2=O)CC1 [Example 12, 2-[3-(2-chlorophenyl)propyl]-6-(2,3-dihydro-1-benzofuran-5-yl)-4-(4-methyl-1-piperazinyl)methyl-2H-pyridazin-3-one] |  | 2.2 |  |
| NCc1cc(-c2ccc3c(c2)CCO3)nn(Cc2ccccc2Cl)c1=O [Example 18, 4-aminomethyl-2-(2-chlorobenzyl)-6-(2,3-dihydro-1-benzofuran-5-yl)-2H-pyridazin-3-one] | 120.1 to 122.8 °C | 7.5 |  |
